Where two headings read alike, the source gives them in different places.
What was measured:
AsPC-1 (K-Ras G12D) = test: Potency assay: pERK; type: cell-based; settings: Homo sapiens
Text: The purpose of this assay was to measure the ability of test compounds to inhibit K-Ras in cells. Activated K-Ras induces increased phosphorylation of ERK at Threonine 202 and Tyrosine 204 (pERK). This procedure measures a decrease in cellular pERK in response to test compounds. The procedure described below in NCI-H358 cells is applicable to K-Ras G12C.
Note: This protocol may be executed substituting other cell lines to characterize inhibitors of other RAS variants, including, for example, AsPC-1 (K-Ras G12D), Capan-1 (K-Ras G12V), or NCI-H1355 (K-Ras G13C).
NCI-H358 cells were grown and maintained using media and procedures recommended by the ATCC. On the day prior to compound addition, cells were plated in 384-well cell culture plates (40 μl/well) and grown overnight in a 37° C., 5% CO2 incubator. Test compounds were prepared in 10, 3-fold dilutions in DMSO, with a high concentration of 10 mM. On the day of assay, 40 nL of test compound was added to each well of cell culture plate using an Echo550 liquid handler (LabCyte®). Concentrations of test compound were tested in duplicate. After compound addition, cells were incubated 4 hours at 37° C., 5% CO2. Following incubation, culture medium was removed and cells were washed once with phosphate buffered saline.
In some experiments, cellular pERK level was determined using the AlphaLISA SureFire Ultra p-ERK1/2 Assay Kit (PerkinElmer). Cells were lysed in 25 μL lysis buffer, with shaking at 600 RPM at room temperature. Lysate (10 μL) was transferred to a 384-well Opti-plate (PerkinElmer) and 5 μL acceptor mix was added. […] Signal was read on an Envision plate reader (PerkinElmer) using standard AlphaLISA settings. […] Signal was plotted vs. the decadal logarithm of compound concentration, and IC50 was determined by fitting a 4-parameter sigmoidal concentration response model.
In other experiments, cellular pERK was determined by In-Cell Western. […] Signal was plotted vs. the decadal logarithm of compound concentration, and IC50 was determined by fitting a 4-parameter sigmoidal concentration response model.

SW1573 = settings: Canon et al., Nature 575:217-223 (2019); cited from earlier work
[1] = ester bond, 18-membered ring, EDCI/HOBt/DIEA, DCM, 25.0 °C
[2] = ASPC1, read-out: IC50 in the pERK potency assay

CCn1c(-c2cccnc2[C@H](C)OC)c2c3cc(ccc31)-c1cc(cc(C(F)F)c1)C[C@H](NC(=O)[C@H](C(C)C)N1CC[C@]3(CCN(C(=O)[C@@H]4N[C@@H]4C4CC4)C3)C1)C(=O)N1CCC[C@H](N1)C(=O)OCC(C)(C)C2 [Example A17]
IC50 (AsPC-1 (K-Ras G12D); [2]): > 8 µM

CCn1c(-c2cccnc2[C@H](C)OC)c2c3cc(ccc31)-c1csc(n1)C[C@H](NC(=O)[C@H](C1CCCC1)N1CC[C@]3(CCN(C(=O)[C@@]4(C)CN4)C3)C1)C(=O)N1CCC[C@H](N1)C(=O)OCC(C)(C)C2 [Example A5]
IC50 (AsPC-1 (K-Ras G12D); [2]): > 8 µM

C=CC(=O)N1CCN(c2nc(=O)n(-c3c(C)ccnc3C(C)C)c3nc(-c4c(O)cccc4F)c(F)cc23)[C@@H](C)C1 [AMG510]
sensitivity of cell line to RAS inhibitor (SW1573): insensitive

CCn1c(-c2cccnc2[C@H](C)OC)c2c3cc(ccc31)-c1cc(cc(C(F)F)c1)C[C@H](NC(=O)[C@H](C1CCCC1)N1CC[C@]3(CCN(C(=O)[C@@H]4N[C@@H]4C4CC4)C3)C1)C(=O)N1CCC[C@H](N1)C(=O)OCC(C)(C)C2 [Example A18]
IC50 (AsPC-1 (K-Ras G12D); ASPC1, AsPC-1 (K-Ras G12D) cells, read-out: IC50 in the pERK potency assay): > 8 µM

CO[C@@H](C)c1ncc(N2CCN(C3CC3)CC2)cc1-c1c2c3cc(ccc3n1CC(F)(F)F)N1CCO[C@@H](C[C@H](NC(=O)OC(C)(C)C)C(=O)N3CCC[C@H](N3)C(=O)OCC(C)(C)C2)C1
ring closure, isolated yield ([1]; from CO[C@@H](C)c1ncc(N2CCN(C3CC3)CC2)cc1-c1c(CC(C)(C)CO)c2cc(N3CCO[C@@H](C[C@H](NC(=O)OC(C)(C)C)C(=O)N4CCC[C@@H](C(=O)O)N4)C3)ccc2n1CC(F)(F)F, 9.22 mM): 64%

CCn1c(-c2cc(N3CCN4CCC[C@@H]4C3)cnc2[C@H](C)OC)c2c3cc(ccc31)-c1cc(cc(C(F)F)c1)C[C@H](NC(=O)OC(C)(C)C)C(=O)N1CCC[C@H](N1)C(=O)OCC(C)(C)C2
ring closure, isolated yield ([1]; from CCn1c(-c2cc(N3CCN4CCC[C@@H]4C3)cnc2[C@H](C)OC)c(CC(C)(C)CO)c2cc(-c3cc(C[C@H](NC(=O)OC(C)(C)C)C(=O)N4CCC[C@@H](C(=O)O)N4)cc(C(F)F)c3)ccc21, 10.1 mM): 78%

From patent US12252497B2, “Ras inhibitors” (Revolution Medicines, Inc., priority 2021, dated 2025)
